Results reported in patent publication US12448394B2, “Heterocyclic pyrazole derivatives as type III receptor tyrosine kinase inhibitors” (DEVELOPMENT CENTER FOR BIOTECHNOLOGY, priority 2019, dated 2025).

Target: T1, FLT3 kinase (Homo sapiens, UniProt P36888)
T1 construct: purchased SignalChem
T1 sequence (P36888 27-993): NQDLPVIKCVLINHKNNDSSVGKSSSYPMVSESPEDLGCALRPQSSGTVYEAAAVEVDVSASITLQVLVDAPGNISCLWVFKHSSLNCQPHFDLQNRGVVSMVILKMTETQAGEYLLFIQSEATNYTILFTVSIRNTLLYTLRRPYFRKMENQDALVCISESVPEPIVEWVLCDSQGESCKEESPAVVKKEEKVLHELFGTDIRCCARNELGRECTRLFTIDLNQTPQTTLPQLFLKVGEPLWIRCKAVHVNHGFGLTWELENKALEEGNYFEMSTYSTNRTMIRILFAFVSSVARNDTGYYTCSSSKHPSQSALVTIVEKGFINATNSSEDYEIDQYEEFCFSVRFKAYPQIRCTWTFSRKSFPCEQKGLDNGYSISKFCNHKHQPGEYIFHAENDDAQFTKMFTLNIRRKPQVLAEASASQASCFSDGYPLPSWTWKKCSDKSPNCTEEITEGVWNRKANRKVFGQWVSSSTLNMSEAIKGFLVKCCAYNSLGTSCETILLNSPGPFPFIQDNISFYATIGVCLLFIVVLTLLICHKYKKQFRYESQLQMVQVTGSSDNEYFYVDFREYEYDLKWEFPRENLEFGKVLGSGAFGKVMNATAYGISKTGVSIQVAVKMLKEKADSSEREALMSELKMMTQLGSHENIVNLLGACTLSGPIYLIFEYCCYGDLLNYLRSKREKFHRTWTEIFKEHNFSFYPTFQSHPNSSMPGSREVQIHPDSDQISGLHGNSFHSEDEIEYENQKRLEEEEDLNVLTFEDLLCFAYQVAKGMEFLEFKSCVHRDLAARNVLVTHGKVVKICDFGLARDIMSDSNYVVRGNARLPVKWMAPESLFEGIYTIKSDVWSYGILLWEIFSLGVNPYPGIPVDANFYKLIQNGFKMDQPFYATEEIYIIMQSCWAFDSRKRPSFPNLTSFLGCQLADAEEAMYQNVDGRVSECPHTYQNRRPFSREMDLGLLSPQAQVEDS
Assay: FLT3 kinase assay (AlphaScreen)
Format: biochemical
Details: read-out: Ranking of IC50 values, FLT3
Protocol: Inhibition of FLT3 kinase activity by a test compound disclosed herein was estimated by AlphaScreen (PerkinElmer, […]). Standard assay conditions were 1.5 ng of recombinant FLT3 kinase (SignalChem, Richmond, BC, Canada) with 6 ng Biotin-conjugated Poly-(Glu 4: Tyr 1) (Cisbio, Bedford, MA, USA) in the assay buffer (10 μM ATP, 10 mM MOPs, pH7.0, 0.21 mM EDTA, 0.5% glycerol, 1 mg/mL BSA, 0.01% 2-mercaptoethanol, 0.001% Brij35, 10 mM MgCl2) in a final volume of 25 μL. Reactions were incubated at 30° C. for 30 min and stopped by adding 5 μL of 50 mM EDTA. Analysis of resulting product using an AlphaScreen kit and counted with Enspire Alpha (PerkinElmer, Waltham, MA, USA). […] The IC50 values of inhibitors were determined after carrying out assays with each compound at serially diluted concentrations in duplication. The results were analyzed using linear regression software (GraphPad Prism 5; GraphPad Software Inc.)

Compound | IC50
CN(C)c1ccc(-c2cc3c(s2)Cc2c(-c4ccc5cnn(C)c5c4)n[nH]c2-3)cn1 [Compound 5, N,N-dimethyl-5-(3-(1-methyl-1H-indazol-6-yl)-1,4-dihydrothieno [2′,3′:4,5]cyclopenta[1,2-c]pyrazol-6-yl)pyridin-2-amine] | 1 to 10 nM
C[C@@H]1CN(Cc2ccc(-c3cc4c(s3)Cc3c(-c5ccc6cnn(C)c6c5)n[nH]c3-4)cn2)C[C@H](C)O1 [Compound 9, (2S,6R)-2,6-dimethyl-4-((5-(3-(1-methyl-lH-indazol-6-yl)-1,4-dihydro-thieno[2′,3′:4,5]cyclopenta [1,2-c]pyrazol-6-yl)pyridin-2-yl)methyl) morpholine] | < 1 nM
Cc1ccc(-c2cc3c(s2)Cc2c(-c4ccc5cnn(C)c5c4)n[nH]c2-3)cn1 [Compound 11, 3-(1-methyl-1H-indazol-6-yl)-6-(6-methylpyridin-3-yl)-1,4-dihydrothieno [2′,3′:4,5]cyclopenta[1,2-c] pyrazole] | 1 to 10 nM
C[C@@H]1CN(Cc2cccc(-c3cc4c(s3)Cc3c(-c5ccc6cnn(C)c6c5)n[nH]c3-4)c2)C[C@H](C)O1 [Compound 12, (2S,6R)-2,6-dimethyl-4-(3-(3-(1-methyl-1H-indazol-6-yl)-1,4-dihydrothieno [2′,3′:4,5]cyclopenta[1,2-c]pyrazol-6-yl)benzyl) morpholine] | 1 to 10 nM
CN1CCN(Cc2cccc(-c3cc4c(s3)Cc3c(-c5ccc6cnn(C)c6c5)n[nH]c3-4)c2)CC1 [Compound 14, 3-(1-methyl-1H-indazol-6-yl)-6-(3-((4-methylpiperazin-1-yl)methyl)phenyl)-1,4-dihydrothieno [2′,3′:4,5]cyclopenta[1,2-c] pyrazole] | 1 to 10 nM
CN1CCN(C(=O)c2ccc(-c3cc4c(s3)Cc3c(-c5ccc6cnn(C)c6c5)n[nH]c3-4)cc2)CC1 [Compound 15, (4-(3-(1-methyl-1H-indazol-6-yl)-1,4-dihydrothieno[2′,3′:4,5]cyclopenta[1,2-c]pyrazol-6-yl)phenyl)(4-methyl-piperazin-1-yl)methanone] | < 1 nM
Cc1cc(-c2cc3c(s2)Cc2c(-c4ccc5cnn(C)c5c4)n[nH]c2-3)ccn1 [Compound 17, 3-(1-methyl-1H-indazol-6-yl)-6-(2-methylpyridin-4-yl)-1,4-dihydrothieno [2′,3′:4,5]cyclopenta[1,2-c] pyrazole] | 1 to 10 nM
C[C@@H]1CN(C(=O)c2ccc(-c3cc4c(s3)Cc3c(-c5ccc6cnn(C)c6c5)n[nH]c3-4)cc2)C[C@H](C)O1 [Compound 19, ((2S,6R)-2,6-dimethyl-morpholino)(4-(3-(1-methyl-1H-indazol-6-yl)-1,4-dihydrothieno[2′,3′:4,5]cyclopenta[1,2-c]pyrazol-6-yl)phenyl)methanone] | 1 to 10 nM
Cn1ncc2ccc(-c3n[nH]c4c3Cc3sc(-c5ccc(C(=O)N6CCOCC6)nc5)cc3-4)cc21 [Compound 23, (5-(3-(1-methyl-1H-indazol-6-yl)-1,4-dihydro-thieno[2′,3′:4,5]cyclopenta [1,2-c]pyrazol-6-yl)pyridin-2-yl)(morpholino) methanone] | < 1 nM

Second part, the molecule after the results:

IC50 | Compound
< 1 nM | c1cc(-c2cc3c(s2)Cc2c(-c4ccc5cn[nH]c5c4)n[nH]c2-3)ccc1CN1CCOCC1 [Compound 6, 4-(4-(3-(1H-indazol-6-yl)-1,4-dihydrothieno[2′,3′:4,5]cyclopenta[1,2-c]pyrazol-6-yl)benzyl)morpholine]
1 to 10 nM | C[C@@H]1CN(Cc2ccc(-c3cc4c(s3)Cc3c(-c5ccc6cn[nH]c6c5)n[nH]c3-4)cc2)C[C@H](C)O1 [Compound 7, (2S,6R)-4-(4-(3-(1H-indazol-6-yl)-1,4-dihydrothieno[2′,3′:4,5]cyclopenta [1,2-c]pyrazol-6-yl)benzyl)-2,6-dimethylmorpholine]
< 1 nM | Cn1ncc2ccc(-c3n[nH]c4c3Cc3sc(-c5ccc(CN6CCOCC6)cc5)cc3-4)cc21 [Compound 8, 4-(4-(3-(1-methyl-1H-indazol-6-yl)-1,4-dihydro-thieno[2′,3′:4,5]cyclopenta [1,2-c]pyrazol-6-yl)benzyl) morpholine]
< 1 nM | Cn1ncc2ccc(-c3n[nH]c4c3Cc3sc(-c5ccc(CN6CCOCC6)nc5)cc3-4)cc21 [Compound 10, 4-((5-(3-(1-methyl-1H-indazol-6-yl)-1,4-dihydro-thieno[2′,3′:4,5]cyclopenta [1,2-c]pyrazol-6-yl)pyridin-2-yl)methyl)morpholine]
1 to 10 nM | Cn1ncc2ccc(-c3n[nH]c4c3Cc3sc(-c5cccc(CN6CCOCC6)c5)cc3-4)cc21 [Compound 13, 4-(3-(3-(1-methyl-1H-indazol-6-yl)-1,4-dihydro-thieno[2′,3′:4,5]cyclopenta [1,2-c]pyrazol-6-yl)benzyl) morpholine]
< 1 nM | C[C@@H]1CN(Cc2ccc(-c3cc4c(s3)Cc3c(-c5ccc6cn[nH]c6c5)n[nH]c3-4)cn2)C[C@H](C)O1 [Compound 16, (2R,6S)-4-((5-(3-(1H-indazol-6-yl)-1,4-dihydro-thieno[2′,3′:4,5]cyclopenta [1,2-c]pyrazol-6-yl)pyridin-2-yl)methyl)-2,6-dimethylmorpholine]
< 1 nM | c1cc(CN2CCOCC2)ncc1-c1cc2c(s1)Cc1c(-c3ccc4cn[nH]c4c3)n[nH]c1-2 [Compound 18, 4-((5-(3-(1H-indazol-6-yl)-1,4-dihydrothieno[2′,3′:4,5]cyclopenta[1,2-c]pyrazol-6-yl)pyridin-2-yl)methyl) morpholine]
1 to 10 nM | CC(c1ccc(-c2cc3c(s2)Cc2c(-c4ccc5cnn(C)c5c4)n[nH]c2-3)cc1)N1CCOCC1 (stereo not shown) [Compound 20, 4-(1-(4-(3-(1-methyl-1H-indazol-6-yl)-1,4-dihydro-thieno[2′,3′:4,5]cyclopenta [1,2-c]pyrazol-6-yl)phenyl)ethyl)morpholine]
< 1 nM | Cn1ncc2ccc(-c3n[nH]c4c3Cc3sc(-c5ccc(C(=O)N6CCOCC6)cc5)cc3-4)cc21 [Compound 21, (4-(3-(1-methyl-1H-indazol-6-yl)-1,4-dihydro-thieno[2′,3′:4,5]cyclopenta [1,2-c]pyrazol-6-yl)phenyl) (morpholino)methanone]
< 1 nM | Cn1ncc2ccc(-c3n[nH]c4c3Cc3sc(-c5ccc(CCN6CCOCC6)cc5)cc3-4)cc21 [Compound 22, 4-(4-(3-(1-methyl-1H-indazol-6-yl)-1,4-dihydro-thieno[2′,3′:4,5]cyclopenta [1,2-c]pyrazol-6-yl)phenethyl)morpholine]
< 1 nM | COc1cc(-c2cc3c(s2)Cc2c(-c4ccc5cnn(C)c5c4)n[nH]c2-3)ccc1CN1CCOCC1 [Compound 24, 4-(2-methoxy-4-(3-(1-methyl-1H-indazol-6-yl)-1,4-dihydrothieno[2′,3′:4,5]cyclopenta[1,2-c]pyrazol-6-yl)benzyl)morpholine]
1 to 10 nM | Cn1ncc2ccc(-c3n[nH]c4c3Cc3sc(-c5ccc(CN6CCOCC6)c(F)c5)cc3-4)cc21 [Compound 25, 4-(2-fluoro-4-(3-(1-methyl-1H-indazol-6-yl)-1,4-dihydrothieno[2′,3′:4,5]cyclopenta[1,2-c]pyrazol-6-yl)benzyl)morpholine]
1 to 10 nM | Cc1cc(-c2cc3c(s2)Cc2c(-c4ccc5cnn(C)c5c4)n[nH]c2-3)ccc1CN1CCOCC1 [Compound 26, 4-(2-methyl-4-(3-(1-methyl-1H-indazol-6-yl)-1,4-dihydrothieno[2′,3′:4,5]cyclopenta[1,2-c]pyrazol-6-yl)benzyl)morpholine]
